Test results as given in ChEMBL document CHEMBL1201862, “PubChem BioAssay data set” (2004).
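Five compound concentrations were applied to cells in 96-well plates for 48 hours; endpoints were derived by simple linear interpolation of the resulting dose-response curve. GI50 is the concentration that inhibits growth by half.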 Activity calls are given as the source filed them. No stated cut-off is given here; in the data, active = GI50 up to about 1.1 µM and inactive = higher.

Experiments:
Test in all cases: NCI tumour cell line growth inhibition, 48 h
A498 = test system: A498
A549 = test system: A549
CAKI-1 = test system: CAKI-1
COLO 205 = test system: COLO 205
HOP-62 = test system: HOP-62
KM12 = test system: KM12
OVCAR-4 = test system: OVCAR-4
SK-MEL-5 = test system: SK-MEL-5
SK-OV-3 = test system: SK-OV-3
SN12C = test system: SN12C
SW-620 = test system: SW-620
U-251 = test system: U-251
UACC-62 = test system: UACC-62
RXF 393 = test system: RXF 393

**Q.** For `CCOC(=O)CC(=O)ON(C)C(=O)Cc1ccccc1`, which GI50 (A498) is on record?
**A.** > 100 µM (inactive)

**Q.** What about the GI50 (A549) of the same compound?
**A.** > 100 µM (inactive)

**Q.** What about the GI50 (CAKI-1) of the same compound?
**A.** > 100 µM (inactive)

**Q.** What about the GI50 (COLO 205) of the same compound?
**A.** > 100 µM (inactive)

**Q.** And the GI50 (HOP-62)?
**A.** > 100 µM (inactive)

**Q.** What about the GI50 (KM12) of the same compound?
**A.** > 100 µM (inactive)

**Q.** And the GI50 (OVCAR-4)?
**A.** > 100 µM (inactive)

**Q.** What about the GI50 (SK-MEL-5) of the same compound?
**A.** > 100 µM (inactive)

**Q.** And the GI50 (SK-OV-3)?
**A.** > 100 µM (inactive)

**Q.** And the GI50 (SN12C)?
**A.** > 100 µM (inactive)

**Q.** What about the GI50 (SW-620) of the same compound?
**A.** > 100 µM (inactive)

**Q.** And the GI50 (U-251)?
**A.** > 100 µM (inactive)

**Q.** And the GI50 (UACC-62)?
**A.** > 100 µM (inactive)

**Q.** With `CC(C)=CC(=O)OC1C2C(C)C(=O)OC2C(O)C(C)C2C=CC(=O)C21C` (stereo not given) as the compound, how does the GI50 (A498) read?
**A.** 2.05 µM (inactive)

**Q.** What about the GI50 (A549) of the same compound?
**A.** 8.65 µM (inactive)

**Q.** And the GI50 (CAKI-1)?
**A.** 3.24 µM (inactive)

**Q.** What about the GI50 (COLO 205) of the same compound?
**A.** 1.87 µM (inactive)

**Q.** And the GI50 (HOP-62)?
**A.** 8.02 µM (inactive)

**Q.** What about the GI50 (KM12) of the same compound?
**A.** 4.03 µM (inactive)

**Q.** What about the GI50 (OVCAR-4) of the same compound?
**A.** 3.13 µM (inactive)

**Q.** And the GI50 (RXF 393)?
**A.** 1.28 µM (inactive)

**Q.** And the GI50 (SK-MEL-5)?
**A.** 3.32 µM (inactive)

**Q.** What about the GI50 (SK-OV-3) of the same compound?
**A.** 7.23 µM (inactive)

**Q.** And the GI50 (SN12C)?
**A.** 3.69 µM (inactive)

**Q.** And the GI50 (SW-620)?
**A.** 1.68 µM (inactive)

**Q.** What about the GI50 (U-251) of the same compound?
**A.** 4.06 µM (inactive)

**Q.** What about the GI50 (UACC-62) of the same compound?
**A.** 1.47 µM (inactive)

**Q.** What does the source list for `C[P+](C)(C)c1ccccc1`?
**A.** GI50 (A549): > 100 µM (inactive); GI50 (CAKI-1): > 100 µM (inactive); GI50 (COLO 205): > 100 µM (inactive); GI50 (HOP-62): > 100 µM (inactive); GI50 (KM12): > 100 µM (inactive); GI50 (OVCAR-4): > 100 µM (inactive); GI50 (RXF 393): > 100 µM (inactive); GI50 (SK-MEL-5): > 100 µM (inactive); GI50 (SK-OV-3): > 100 µM (inactive); GI50 (SN12C): > 100 µM (inactive); GI50 (SW-620): > 100 µM (inactive); GI50 (U-251): > 100 µM (inactive); GI50 (UACC-62): > 100 µM (inactive)

**Q.** `CCOC(OC1=C(C#N)CCCC1)C(CC)[Se]c1ccccc1[N+](=O)[O-]` (stereo not given) was tested. Which GI50 (A498) did it give?
**A.** > 100 µM (inactive)

**Q.** And the GI50 (A549)?
**A.** 57.5 µM (inactive)

**Q.** What about the GI50 (CAKI-1) of the same compound?
**A.** > 100 µM (inactive)

**Q.** And the GI50 (COLO 205)?
**A.** 29.6 µM (inactive)

**Q.** And the GI50 (HOP-62)?
**A.** 32.1 µM (inactive)

**Q.** What about the GI50 (KM12) of the same compound?
**A.** 21.1 µM (inactive)

**Q.** And the GI50 (OVCAR-4)?
**A.** 17.9 µM (inactive)

**Q.** What about the GI50 (RXF 393) of the same compound?
**A.** 28.8 µM (inactive)

**Q.** What about the GI50 (SK-MEL-5) of the same compound?
**A.** 15.1 µM (inactive)

**Q.** What about the GI50 (SK-OV-3) of the same compound?
**A.** 63.8 µM (inactive)

**Q.** And the GI50 (SN12C)?
**A.** 19.6 µM (inactive)

**Q.** And the GI50 (U-251)?
**A.** 16.6 µM (inactive)

**Q.** And the GI50 (UACC-62)?
**A.** 22 µM (inactive)

**Q.** What does the source list for `Cc1cc(N(CCC#N)CCC#N)ccc1/N=N/c1cccc(C(=O)O)c1`?
**A.** GI50 (A498): > 100 µM (inactive); GI50 (A549): > 100 µM (inactive); GI50 (CAKI-1): > 100 µM (inactive); GI50 (COLO 205): > 100 µM (inactive); GI50 (HOP-62): > 100 µM (inactive); GI50 (KM12): > 100 µM (inactive); GI50 (OVCAR-4): > 100 µM (inactive); GI50 (RXF 393): > 100 µM (inactive); GI50 (SK-MEL-5): > 100 µM (inactive); GI50 (SK-OV-3): > 100 µM (inactive); GI50 (SN12C): > 100 µM (inactive); GI50 (SW-620): > 100 µM (inactive); GI50 (U-251): > 100 µM (inactive); GI50 (UACC-62): 60.5 µM (inactive)

**Q.** What does the source list for `CC(C)CCCCCCCCCCCCC(=O)NCC(=O)NC1C(C)OC(Nc2ncnc3c2ncn3C)C(O)C1O` (stereo not given)?
**A.** GI50 (A498): 4.15 µM (inactive); GI50 (A549): 8.28 µM (inactive); GI50 (CAKI-1): 0.805 µM (active); GI50 (COLO 205): 3.81 µM (inactive); GI50 (HOP-62): 2.21 µM (inactive); GI50 (KM12): 5.47 µM (inactive); GI50 (OVCAR-4): 6.41 µM (inactive); GI50 (RXF 393): 2.89 µM (inactive); GI50 (SK-MEL-5): > 74.3 µM (inactive); GI50 (SK-OV-3): 3.1 µM (inactive); GI50 (SN12C): 3.5 µM (inactive); GI50 (SW-620): 5.37 µM (inactive); GI50 (U-251): 1.21 µM (inactive); GI50 (UACC-62): 3.18 µM (inactive)

**Q.** With `CN1OC(=O)N(C)C1c1ccccc1` (stereo not given) as the compound, how does the GI50 (A498) read?
**A.** > 100 µM (inactive)

**Q.** What about the GI50 (A549) of the same compound?
**A.** > 100 µM (inactive)

**Q.** And the GI50 (COLO 205)?
**A.** > 100 µM (inactive)

**Q.** And the GI50 (HOP-62)?
**A.** > 100 µM (inactive)

**Q.** And the GI50 (KM12)?
**A.** > 100 µM (inactive)

**Q.** What about the GI50 (OVCAR-4) of the same compound?
**A.** > 100 µM (inactive)

**Q.** And the GI50 (RXF 393)?
**A.** > 100 µM (inactive)

**Q.** And the GI50 (SK-MEL-5)?
**A.** > 100 µM (inactive)

**Q.** What about the GI50 (SK-OV-3) of the same compound?
**A.** > 100 µM (inactive)

**Q.** And the GI50 (SN12C)?
**A.** > 100 µM (inactive)

**Q.** What about the GI50 (SW-620) of the same compound?
**A.** > 100 µM (inactive)

**Q.** What about the GI50 (U-251) of the same compound?
**A.** > 100 µM (inactive)

**Q.** What about the GI50 (UACC-62) of the same compound?
**A.** > 100 µM (inactive)

**Q.** With `Cc1cc(O)nc(NNC(C#N)c2cccc(O)c2)n1` (stereo not given) as the compound, how does the GI50 (A549) read?
**A.** > 100 µM (inactive)

**Q.** And the GI50 (CAKI-1)?
**A.** > 100 µM (inactive)

**Q.** What about the GI50 (COLO 205) of the same compound?
**A.** > 100 µM (inactive)

**Q.** And the GI50 (HOP-62)?
**A.** > 100 µM (inactive)

**Q.** And the GI50 (KM12)?
**A.** > 100 µM (inactive)

**Q.** And the GI50 (OVCAR-4)?
**A.** > 100 µM (inactive)

**Q.** And the GI50 (RXF 393)?
**A.** > 100 µM (inactive)

**Q.** What about the GI50 (SK-MEL-5) of the same compound?
**A.** > 100 µM (inactive)

**Q.** What about the GI50 (SK-OV-3) of the same compound?
**A.** > 100 µM (inactive)

**Q.** What about the GI50 (SN12C) of the same compound?
**A.** > 100 µM (inactive)

**Q.** And the GI50 (SW-620)?
**A.** > 100 µM (inactive)

**Q.** And the GI50 (U-251)?
**A.** > 100 µM (inactive)

**Q.** What about the GI50 (UACC-62) of the same compound?
**A.** 75.7 µM (inactive)

**Q.** What does the source list for `COc1ccc(C2Oc3cc(OC)c(O)cc3[C@@H]2C)cc1` (stereo not given in full)?
**A.** GI50 (A498): > 100 µM (inactive); GI50 (A549): 59 µM (inactive); GI50 (CAKI-1): 29.3 µM (inactive); GI50 (COLO 205): > 100 µM (inactive); GI50 (HOP-62): > 100 µM (inactive); GI50 (KM12): 45 µM (inactive); GI50 (OVCAR-4): 32.5 µM (inactive); GI50 (RXF 393): 28.2 µM (inactive); GI50 (SK-MEL-5): 31.1 µM (inactive); GI50 (SK-OV-3): > 100 µM (inactive); GI50 (SW-620): 17.1 µM (inactive); GI50 (U-251): > 100 µM (inactive); GI50 (UACC-62): > 10 µM (inactive)

**Q.** For `O=C(c1ccc(O)cc1O)C1C(c2ccc(O)cc2)OC(c2ccc(O)cc2)C1C(=O)c1ccc(O)cc1O` (stereo not given), which GI50 (A549) is on record?
**A.** > 100 µM (inactive)

**Q.** What about the GI50 (CAKI-1) of the same compound?
**A.** 45.6 µM (inactive)

**Q.** What about the GI50 (HOP-62) of the same compound?
**A.** 5.26 µM (inactive)

**Q.** What about the GI50 (KM12) of the same compound?
**A.** 21.9 µM (inactive)

**Q.** What about the GI50 (OVCAR-4) of the same compound?
**A.** 28.4 µM (inactive)

**Q.** What about the GI50 (RXF 393) of the same compound?
**A.** 25.5 µM (inactive)

**Q.** And the GI50 (SK-MEL-5)?
**A.** 16.1 µM (inactive)

**Q.** And the GI50 (SN12C)?
**A.** > 10 µM (inactive)

**Q.** And the GI50 (SW-620)?
**A.** 30.6 µM (inactive)

**Q.** What about the GI50 (U-251) of the same compound?
**A.** 16.5 µM (inactive)
